From US10239849B2 (Merck Sharp & Dohme Corp., priority 2015, dated 2019)

Key:
[1] = molecular target: T1, glutathione-S-transferase (GST) tagged LXRalpha LBD (ligand binding domain) (Homo sapiens, UniProt Q13133); assay: LanthaScreen TR-FRET Liver X Receptor Coactivator Assay, LXR alpha-LBD; format: biochemical; conditions: for Emax: efficacy in relation to reference dual agonist T1317, read-out: LXR alpha activity at max dose (%) (Emax); for EC50: potency (Inflection Point) of co-activator recruitment, TR-FRET, read-out: LXR alpha IP
T1 construct: purchased Invitrogen pv4655
T1 sequence (Q13133 209-447 limits assumed): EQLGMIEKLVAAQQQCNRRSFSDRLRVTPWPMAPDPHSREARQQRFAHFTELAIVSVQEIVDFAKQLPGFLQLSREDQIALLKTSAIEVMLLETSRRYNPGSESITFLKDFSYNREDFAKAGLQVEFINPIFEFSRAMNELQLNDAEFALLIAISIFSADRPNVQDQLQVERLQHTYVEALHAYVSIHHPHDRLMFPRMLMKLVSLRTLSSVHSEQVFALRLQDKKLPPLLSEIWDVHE
Method in brief: (§1)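 Test ligands were combined with the receptor LBD, after which terbium-labelled anti-GST antibody and a fluorescein-tagged coactivator peptide were introduced together. Plates sat at room temperature, then time-resolved FRET was measured.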

[2] = molecular target: T2, glutathione-S-transferase (GST) tagged LXRbeta LBD (ligand binding domain) (Homo sapiens, UniProt P55055); assay: LanthaScreen TR-FRET Liver X Receptor Coactivator Assay, LXR beta-LBD; format: biochemical; conditions: for Emax: efficacy in relation to reference dual agonist T1317, read-out: LXR beta activity at max dose (%) (Emax); for EC50: potency (Inflection Point) of co-activator recruitment, TR-FRET, read-out: LXR beta IP
T2 construct: purchased Invitrogen pv4658.pps
T2 sequence (P55055 222-460 limits assumed): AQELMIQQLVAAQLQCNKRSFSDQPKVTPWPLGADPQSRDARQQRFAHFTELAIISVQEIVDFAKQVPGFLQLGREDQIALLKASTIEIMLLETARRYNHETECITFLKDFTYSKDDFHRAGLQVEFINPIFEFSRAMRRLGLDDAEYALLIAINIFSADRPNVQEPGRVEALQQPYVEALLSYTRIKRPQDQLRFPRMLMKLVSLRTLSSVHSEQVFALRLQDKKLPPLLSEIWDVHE
Method in brief: as §1

Row | Emax [1] [%] | EC50 [1] [µM] | Emax [2] [%] | EC50 [2] [µM] | SMILES
1 | 55 | 0.936 | 86 | 0.063 | CN(C)C(=O)c1ccc(-c2ccc(N3CCCN(C(=O)OC(C)(C)C)CC3)cc2)cc1Cl [Example 8-1, tert-butyl 4-[3′-chloro-4′-(dimethylcarbamoyl)biphenyl-4-yl]-1,4-diazepane-1-carboxylate]
2 | 28 | 25.8 | 73 | 0.846 | COc1cc(-c2cnc(N3CCN(C(=O)OC(C)(C)C)CC3)c(C#N)c2)ccc1C(=O)N(C)C [Example 8-2, tert-butyl 4-{3-cyano-5-[4-(dimethylcarbamoyl)-3-methoxyphenyl]pyridin-2-yl}piperazine-1-carboxylate]
3 | 73 | 1.5 | 78 | 0.032 | CN(C)C(=O)c1ccc(-c2ccc(N3CC4CCC3CN4C(=O)OC(C)(C)C)cc2)cc1Cl (stereo not drawn) [Example 8-4, tert-butyl 5-[3′-chloro-4′-(dimethylcarbamoyl)biphenyl-4-yl]-2,5-diazabicyclo[2.2.2]octane-2-carboxylate]
4 | 37 | 16.8 | 53 | 0.252 | CN(C)C(=O)c1ccc(-c2cnc(N3CC4CC3CN4C(=O)OC(C)(C)C)c(C#N)c2)cc1Cl (stereo not drawn) [Example 8-5, tert-butyl 5-{5-[3-chloro-4-(dimethylcarbamoyl)phenyl]-3-cyanopyridin-2-yl}-2,5-diazabicyclo[2.2.1]heptane-2-carboxylate]
5 | 68 | 12.7 | 78 | 0.057 | CC1CN(c2ncc(-c3ccc(C(=O)N(C)C)c(Cl)c3)cc2C#N)CCN1C(=O)OC(C)(C)C (stereo not drawn) [Example 8-6, tert-butyl 4-{5-[3-chloro-4-(dimethylcarbamoyl)phenyl]-3-cyanopyridin-2-yl}-2-methylpiperazine-1-carboxylate]

Further lines, the compound ahead of its results:

Row | SMILES | Emax [1] [%] | EC50 [1] [µM] | Emax [2] [%] | EC50 [2] [µM]
6 | CC(C)(C)OC(=O)N1CCN(c2ncc(-c3ccc(C(=O)N(CCO)Cc4ccccc4)c(Cl)c3)cc2C#N)CC1 [Example 5-30, tert-butyl 4-(5-{4-[benzyl(2-hydroxyethyl)carbamoyl]-3-chlorophenyl}-3-cyanopyridin-2-yl)piperazine-1-carboxylate] | 57 | 10 | 73 | 1.19
7 | CN(CC(O)c1ccc(O)cc1)C(=O)c1ccc(-c2cnc(N3CCN(C(=O)OC(C)(C)C)CC3)c(C#N)c2)cc1Cl (stereo not drawn) [Example 5-31, tert-butyl 4-[5-(3-chloro-4-{[2-hydroxy-2-(4-hydroxyphenyl)ethyl](methyl)carbamoyl}phenyl)-3-cyanopyridin-2-yl]piperazine-1-carboxylate] | 27 | 8.53 | 67 | 1.86
8 | C=CCN(C(=O)c1ccc(-c2cnc(N3CCN(C(=O)OC(C)(C)C)CC3)c(C#N)c2)cc1Cl)C1CCS(=O)(=O)C1 (stereo not drawn) [Example 5-32, tert-butyl 4-(5-{3-chloro-4-[(1,1-dioxidotetrahydro-thiophen-3-yl)(prop-2-en-1-yl)carbamoyl]phenyl}-3-cyanopyridin-2-yl)piperazine-1-carboxylate] | 44 | 23.9 | 78 | 2.21
9 | COc1ccc2nc(CCN(C)C(=O)c3ccc(-c4cnc(N5CCN(C(=O)OC(C)(C)C)CC5)c(C#N)c4)cc3Cl)[nH]c2c1 [Example 5-33, tert-butyl 4-[5-(3-chloro-4-{[2-(6-methoxy-1H-benzimidazol-2-yl)ethyl](methyl)carbamoyl}phenyl)-3-cyanopyridin-2-yl]piperazine-1-carboxylate] | 52 | 4.83 | 78 | 0.703
10 | CN(CCn1cncn1)C(=O)c1ccc(-c2cnc(N3CCN(C(=O)[C@](O)(c4ccccc4)C(F)(F)F)CC3)c(C#N)c2)cc1Cl [Example 6-1, 2-chloro-4-(5-cyano-6-{4-[(2R)-3,3,3-trifluoro-2-hydroxy-2-phenylpropanoyl]piperazin-1-yl}pyridin-3-yl)-N-methyl-N-[2-(1H-1,2,4-triazol-yl)ethyl]benzamide] | 33 | 1.17 | 101 | 0.002
11 | CNC(=O)c1ccc(-c2cnc(N3CCN(C(=O)C(C)(C)C)CC3)c(C#N)c2)cc1Cl [Example 6-2, 2-chloro-4-{5-cyano-6-[4-(2,2-dimethylpropanoyl)piperazin-1-yl]pyridin-3-yl}-N-methylbenzamide] | 34 | 11.3 | 98 | 0.329
12 | CN(CCn1cncn1)C(=O)c1ccc(-c2cnc(N3CCN(C(=O)C(C)(C)c4ccccc4)CC3)c(C#N)c2)cc1Cl [Example 6-3, 2-chloro-4-{5-cyano-6-[4-(2-methyl-2-phenylpropanoyl)piperazin-1-yl]pyridin-3-yl}-N-methyl-N-[2-(1H-1,2,4-triazol-1-yl)ethyl]benzamide] | 33 | 2.42 | 113 | 0.03
13 | CN(C)C(=O)c1c(Cl)cc(-c2cnc(N3CCN(C(=O)[C@](O)(c4ccccc4)C(F)(F)F)CC3)c(C#N)c2)cc1Cl [Example 7-1, 2,6-dichloro-4-(5-cyano-6-{4-[(2R)-3,3,3-trifluoro-2-hydroxy-2-phenylpropanoyl]piperazin-1-yl}pyridin-3-yl)-N,N-dimethylbenzamide] | 53 | 0.186 | 73 | 0.003
14 | CC(C)C(=O)C(=O)N1CCN(c2ncc(-c3cc(Cl)c(C(=O)N(C)C)c(Cl)c3)cc2C#N)CC1 [Example 7-2, 2,6-dichloro-4-{5-cyano-6-[4-(3-methyl-2-oxobutanoyl)piperazin-1-yl]pyridin-3-yl}1-N,N-dimethylbenzamide] | 30 | 2.04 | 88 | 0.032
15 | CN(C)C(=O)c1c(Cl)cc(-c2cnc(N3CC4CCC(C3)N4C(=O)OC(C)(C)C)c(C#N)c2)cc1Cl [Example 7-3, tert-butyl 3-(3-cyano-5-(3,5-dichloro-4-(dimethylcarbamoyl)phenyl)pyridin-2-yl)-3,8-diazabicyclo[3.2.1]octane-8-carboxylate] | 21 | 0.151 | 67 | 0.013
16 | CN(C)C(=O)c1c(Cl)cc(-c2cnc(N3CC4CCC3CN4C(=O)OC(C)(C)C)c(C#N)c2)cc1Cl (stereo not drawn) [Example 7-4, tert-butyl 5-(3-cyano-5-(3,5-dichloro-4-(dimethylcarbamoyl)phenyl)pyridin-2-yl)-2,5-diazabicyclo[2.2.2]octane-2-carboxylate] | 11 | 0.671 | 62 | 0.049
17 | CN(C)C(=O)c1ccc(-c2ccc(N3CC4CCC(C3)N4C(=O)OC(C)(C)C)cc2)cc1Cl [Example 8-3, tert-butyl 3-[3′-chloro-4′-(dimethylcarbamoyl)biphenyl-4-yl]-3,8-diazabicyclo[3.2.1]octane-8-carboxylate] | 64 | 11.7 | 87 | 0.189
18 | CN(C)C(=O)c1ccc(-c2cnc(N3CC4CCC(C3)N4C(=O)OC(C)(C)C)c(C#N)c2)cc1Cl [Example 8-7, tert-butyl 3-{5-[3-chloro-4-(dimethylcarbamoyl)phenyl]-3-cyanopyridin-2-yl}-3,8-diazabicyclo[3.2.1]octane-8-carboxylate] | 52 | 1.64 | 71 | 0.031
